Assay results as given in patent publication US20240131204A1, “Fractionated Dosing of a Phospholipid Ether Analog for the Treatment of Cancer” (Cellectar Biosciences, Inc., priority 2019, published 2024).

Legend:
[1] = tested on: OPM-2 cell line (human multiple myeloma); assay: OPM-2 multiple myeloma subcutaneous xenograft in CB17 SCID mice (tumor volume, doubling time, survival, body weight); format: in vivo; conditions: for tolerability: repeated/fractionated dosing versus the single equal dose
Protocol: The OPM-2 cell line (human multiple myeloma) was purchased from American Type Culture Collection (ATCC, Rockville, MD) and maintained in McCoy's 5a media supplemented with 10% fetal bovine serum. Female CB17 SCID mice approximately 5-7 weeks of age were injected subcutaneously with 1×10^7 viable cells (in ˜100 μL Dulbecco's PBS) into the right flank. The study was initiated when tumor size had reached a pre-determined size (approximately 150-200 mm3). The mice were given potassium iodide at a concentration of 0.1% in their drinking water to block possible free iodide in the drug formulation three days prior to injection and continuing through two weeks post-injection. Mice were randomly assigned to dose groups. Tumor volume was measured with a caliper during the course of the study. Tumor doubling time calculation TDT=D×log(2)/log(1+r/100), where D equals days between measurements and r=rate of growth; r/100=(V2−V1/V1)×100%. Statistical analysis: 1-way Anova, Dunnett's test.

[2] = tested on: xenograft, orthotopic and transgenic cancer and cancer stem cell derived animal models; assay: Tumor selectivity, uptake and retention in animal tumor models; format: in vivo; conditions: variety of tumor models
[3] = tested on: xenograft, orthotopic and transgenic cancer and cancer stem cell derived animal models; conditions: radioiodinated CLR1404; cited from earlier work
[4] = Clinical trial: single bolus dose (Cohort 4) versus fractionated dose (Cohort 5); format: in vivo, human
Protocol: Dosing is based upon body surface area or BSA in millicuries/meter squared (mCi/m^2). Patients either received a single 30 minute infusion of 31.25 mCi/m^2 on day 1 or a 30 minute fractionated infusion dose of 15.625 mCi/m^2 on day 1 and then repeated on day 8.

Compound | tolerability [1] | sequestration and retention by cancer cells and cancer stem cells [2] | tumor selectivity (models showing it / models tested) [3] | antitumor activity ([1]; all doses, model of multiple myeloma) | survival ([1]; fractionated dosing) | tumor doubling time ([1]; fractionated dosing versus all other treatments) | reduction in tumor volume vs control ([1]; fractionated dosing, after day 26) | reduction in tumor volume vs all other treatments ([1]; fractionated dosing, day 52, p<0.05) | average reduction in surrogate markers of efficacy ([4]; fractionated dose (Cohort 5)) [%] | average progression free survival ([4]; fractionated dose (Cohort 5), assessment ongoing) [months] | median overall survival ([4]; fractionated dose, 15.625 mCi/m^2 on day 1 and day 8 (Cohort 5), assessment still ongoing) [months] | average progression free survival ([4]; single bolus dose (Cohort 4)) [months] | average reduction in surrogate markers of efficacy ([4]; single bolus dose (Cohort 4)) [%] | median overall survival ([4]; single bolus dose, 31.25 mCi/m^2 on day 1 (Cohort 4)) [months]
C[N+](C)(C)CCOP(=O)([O-])OCCCCCCCCCCCCCCCCCCc1ccc(I)cc1 [CLR1404] | well tolerated and is better tolerated than a single equal dose | sequestered and selectively retained | 55/60 |  |  |  |  |  |  |  |  |  |  | 
^131I-labeled 18-(p-iodo-phenyl)octadecyl phosphocholine [CLR 131] | well tolerated and better tolerated than the single equal dose |  |  | marked antitumor activity | statistically significant survival benefit | markedly increased | statistically significant reduction | statistically significant reduction | 40 | 2.9 | 7.4 | 2.8 | 29 | 6.5
